Measurements: paper PMC4967029 (Drug testing and analysis, 2015)
Where two headings read alike, the source gives them in different places.

Assays:
[1] = for time of peak in saliva post-chewing: after one serving of betel nut/quid, n=4; for detected in saliva above the limit of detection up to (time after chewing): all participants
[2] = Urine time course of betel biomarkers after betel chewing; details: for return to baseline levels in urine (time post-chewing) / time of peak in urine post-chewing: participant 1
[3] = cited from earlier work; for elimination half-life (t1/2): human urine
[4] = Hair analysis for betel related compounds; format: in vivo, human; details: for levels in hair: hair sample from a tobacco consumer
[5] = Stability study of betel alkaloid standards in MeOH, HCl and NaOH at 45°C; format: physicochemical; details: 1N NaOH; for fate of the carboxylic acids in basic conditions: after 24 h
[6] = after infusion; cited from earlier work

SMILES	elimination half-life (t1/2) [3]	return to baseline levels in saliva (time post-chewing) ([1]; saliva)	time of peak in saliva post-chewing ([1]; saliva)	detected in saliva above the limit of detection up to (time after chewing) ([1]; saliva)	return to baseline levels in urine (time post-chewing) [2]	time of peak in urine post-chewing [2]	other results
CN1CCCC(C(=O)O)C1 (stereo not shown) [NMNA, N-methylnipecotic acid]	7.9 h	–	–	–	–	–	detection in saliva samples ([1]; saliva, LC-MS): failed; detection in urine samples ([2]; LC-MS): failed; urinary NMNA excretion ([3]; subjects consumed water extracts of areca nuts): 1298 ng/mg creatinine; urinary excretion of NMNA relative to that of arecaidine ([3]; urine): < 25%; detection in hair samples ([4]; hair of participants who chewed betel nuts at least once daily for ½-2 h): could not detect
CN1CCC=C(C(=O)O)C1 [arecaidine]	4.3 h	8 h	≤ 2 h	up to 8 h	approximately 8 h	approximately 2 h	fate of the carboxylic acids in basic conditions [5]: disappeared
COC(=O)C1=CCCN(C)C1 [arecoline]	0.97 h	8 h	≤ 2 h	up to 8 h	approximately 8 h	approximately 2 h	stability in basic conditions [5]: not stable; time to hydrolysis to the carboxylic acid [5]: up to 1 hour; disappearance of arecoline from plasma [6]: ≥ 15 min
C=CCc1ccc(OC)c(OC2OC(C(=O)O)C(O)C(O)C2O)c1 (stereo not shown) [chavibetol glucuronide]	–	–	–	–	approximately 8 h	approximately 2 h	–
C=CCc1ccc(OC)c(O)c1 [chavibetol]	–	2 h	0.5 to 1 h	–	–	–	detection in saliva ([1]; participant 2, who chewed exclusively betel nut): absence; detection in saliva ([1]; participants 1, 3 and 4, who consumed Piper betle leaves in their BQ): detected
CN1C(=O)CC[C@H]1c1cccnc1 [cotinine]	–	–	–	–	–	–	levels in hair [4]: high levels
O=C(O)C1=CCCNC1 [guvacine]	–	8 h	≤ 2 h	up to 8 h	approximately 8 h	approximately 2 h	fate of the carboxylic acids in basic conditions [5]: disappeared
COC(=O)C1=CCCNC1 [guvacoline]	–	8 h	≤ 2 h	up to 8 h	approximately 8 h	approximately 2 h	stability in basic conditions [5]: not stable; time to hydrolysis to the carboxylic acid [5]: up to 1 hour
CN1CCC[C@H]1c1cccnc1 [nicotine]	–	–	–	–	–	–	levels in hair [4]: high levels
